{"source": "patent US20160346255A1", "about": "“METHODS, AGENTS AND COMPOSITIONS FOR TREATMENT OF INFLAMMATORY CONDITIONS” (Betanien Hospital, priority 2014, published 2016)", "type_in_all_cases": "in vivo, human", "key": {"[1]": {"test_system": "Patient with Rheumatoid Arthritis", "assay": "RA patient treated with degarelix and methotrexate", "protocol": "• person with seropositive rheumatoid arthritis with disease duration of 16 years • Fulfilled ACR 2010 classification criteria for rheumatoid arthritis\n• Previously failed 3 biologics (etanercept, Actemra, and rituximab). Last tried rituximab November 2013, but increasing disease activity and blood tests (CRP and ESR) during the months thereafter until start of degarelix 16.06.14. Concomitantly used stable methotrexate 10 mg weekly since 1999. • Started degarelix 240 mg induction dose 16.06.14, with 80 mg every 2 weeks thereafter. • Disease activity reduced and they achieved an ACR60 response by 29.09.14 under the introduction of degarelix and stable concomitant methotrexate and prednisolone. • 03.10.14 the patient's pulmonary physician stopped methotrexate treatment due to pleural thickening, and CT imaging supporting lung fibrosis which was suspected to be due to methotrexate. The patient had dyspnea which resolved once methotrexate was stopped. • By 21.11.14, the patients disease activity score had increased from 5.1 (29.9.14) to 5.7 (21.11.14), due to the discontinuation of methotrexate."}, "[2]": {"test_system": "patients with risk factors for cardiovascular disease", "assay": "Cardiovascular disease risk factors in patients taking degarelix", "settings": "for Blood pressure: baseline 151/90; for Fasting glucose (4.0-6.0): 8.9 in April 2014; for HDL (1.0-2.7 mmol/L): Patient 7, baseline 0.68", "source_text": "In our patient group who were offered degarelix, some patients had risk factors for cardiovascular disease, metabolic syndrome, lipidemia or hypoalphalipoproteinemia (low HDL). None of these patients had recently started medications prior to the GnRH antagonist that could explain the changes in blood pressure, HbA1c, fasting glucose or lipids. See Example 1 for patient information.\nPatient 1 with metabolic syndrome fulfilling 3 of 5 metabolic risk factors (large waistline >35 inches, high blood pressure and high fasting glucose). […] High HbA1c, contributes to CVD (normal reference range 4.3-6.1%) At baseline 6.4%, high. By 2 weeks HbA1c had normalized to 6.1%. This continues to be normal, and at 8 months is 5.7%. Their fasting glucose was 6.6 mmol/L in September 2014, by October 2014 this was reduced to 6.3 mmol/L. • 2. High blood pressure, contributes to CVD at baseline 151/90 (measured at several times prior to baseline with repeatedly high blood pressure). Blood pressure by 6 months 120/71, and this continues to be normal. At their last check up at 8 months, their blood pressure was 118/78. • 3. No other abnormalities at baseline for assessment\nPatient 4 • High HbA1c, contributes to CVD (normal reference range 4.3-6.1%). At baseline the HbA1c was 6.9%, high. By 1 month the HbA1c had reduced to 6.6, by 2 months 6.4, and by 4 months 6.2, and by 12 months it was normalized to 5.9. Their hospital records from a nearby hospital stated that their fasting glucose was high at 8.5 mmol/L (reference range 4.0-6.0) in December 2013, and by April 2014 this was higher at 8.9. They asked the patient's family doctor to initiate treatment due to the development of diabetes type II. Their fasting glucose had reduced to 6.6 mmol/L by 3 months after starting degarelix, and by 4 months has now normalised to 6.0 mmol/L. No other abnormalities baseline for assessment\nPatient 7 • 1. Low HDL, contributes to CVD (normal reference range 1.0-2.7 mmol/L). Mora et al. investigated the link between cholesterol and cardiovascular events in women and found baseline HDL level was consistently and inversely associated with incident coronary and CVD events. A low HDL cholesterol level is thought to accelerate the development of atherosclerosis because of impaired reverse cholesterol transport and possibly because of the absence of other protective effects of HDL, such as decreased oxidation of other lipoproteins. • They had low HDL at baseline 0.68 mmol/L in September 2014. They received their loading dose of degarelix 240 mg s.c. in September 2014. By 1 week, their HDL level had increased to 0.73, and by 2 weeks it continued to increase towards normal at 0.75. By 3 weeks it had normalized to 1.13 mmol/L and at 4 weeks is normal at 1.19 mmol/L. • 2. No other abnormalities at baseline for assessment"}, "[3]": {"test_system": "patients 1 and 2 (rheumatoid arthritis)", "assay": "Hip bone mineral density in patients taking a GnRH antagonist", "source_text": "However, our data indicates the opposite."}}, "note": "Non-standard residues stand in square brackets, D forms with d. Residues, ends and D or L forms follow the SMILES beside them. *: point of attachment. dPhe(4-NHCONH2) = NC(=O)Nc1ccc(C[C@@H](N)C(=O)O)cc1; Dihydroorotyl(S) = O=C1C[C@@H](C(=O)*)NC(=O)N1; dPhe(4-Cl) = N[C@H](Cc1ccc(Cl)cc1)C(=O)O; Phe(4-NH2) = Nc1ccc(C[C@H](N)C(=O)O)cc1; d2Nal = N[C@H](Cc1ccc2ccccc2c1)C(=O)O; Lys(iPr) = CC(C)NCCCC[C@H](N)C(=O)O; d3Pal = N[C@H](Cc1cccnc1)C(=O)O"}
{"smiles": "CC(=O)N[C@H](Cc1ccc2ccccc2c1)C(=O)N[C@H](Cc1ccc(Cl)cc1)C(=O)N[C@H](Cc1cccnc1)C(=O)N[C@@H](CO)C(=O)N[C@@H](Cc1ccc(NC(=O)[C@@H]2CC(=O)NC(=O)N2)cc1)C(=O)N[C@H](Cc1ccc(NC(N)=O)cc1)C(=O)N[C@@H](CC(C)C)C(=O)N[C@@H](CCCCNC(C)C)C(=O)N1CCC[C@H]1C(=O)N[C@H](C)C(N)=O", "note": "[degarelix] (Ac-[d2Nal][dPhe(4-Cl)][d3Pal]S[Phe(4-NH2)](Dihydroorotyl(S))[dPhe(4-NHCONH2)]L[Lys(iPr)]P[dA]-NH2)", "values": [{"measurement": "Disease activity score", "setting": "[1]; 21.11.14, degarelix after methotrexate stopped 03.10.14", "value": 5.7}, {"measurement": "Disease activity score", "setting": "[1]; 29.9.14, degarelix with methotrexate 10 mg weekly", "value": 5.1}, {"measurement": "ACR response achieved", "setting": "[1]; by 29.09.14 (start 16.06.14), with stable concomitant methotrexate and prednisolone", "value": "ACR60"}, {"measurement": "Fasting glucose", "setting": "[2]; Patient 1, October 2014, 6.6 mmol/L in September 2014", "value": 6.3, "unit": "mmol/L"}, {"measurement": "Criteria for metabolic syndrome", "setting": "[2]; Patient 1, after degarelix, 3 of 5 risk factors before", "value": "no longer fulfills the criteria"}, {"measurement": "HbA1c (4.3-6.1%)", "setting": "[2]; Patient 1, at 8 months, baseline 6.4%", "value": 5.7, "unit": "%"}, {"measurement": "Blood pressure", "setting": "[2]; Patient 1, at 8 months", "value": "118/78"}, {"measurement": "HbA1c (4.3-6.1%)", "setting": "[2]; Patient 1, by 2 weeks, baseline 6.4%", "value": 6.1, "unit": "%"}, {"measurement": "Blood pressure", "setting": "[2]; Patient 1, by 6 months", "value": "120/71"}, {"measurement": "HbA1c (4.3-6.1%)", "setting": "[2]; Patient 4, by 1 month, baseline 6.9%", "value": 6.6, "unit": "%"}, {"measurement": "HbA1c (4.3-6.1%)", "setting": "[2]; Patient 4, by 2 months, baseline 6.9%", "value": 6.4, "unit": "%"}, {"measurement": "Fasting glucose (4.0-6.0)", "setting": "[2]; Patient 4, by 3 months", "value": 6.6, "unit": "mmol/L"}, {"measurement": "Fasting glucose (4.0-6.0)", "setting": "[2]; Patient 4, by 4 months, normalised", "value": 6.0, "unit": "mmol/L"}, {"measurement": "HbA1c (4.3-6.1%)", "setting": "[2]; Patient 4, by 4 months, baseline 6.9%", "value": 6.2, "unit": "%"}, {"measurement": "HbA1c (4.3-6.1%)", "setting": "[2]; Patient 4, by 12 months, normalized, baseline 6.9%", "value": 5.9, "unit": "%"}, {"measurement": "HDL (1.0-2.7 mmol/L)", "setting": "[2]; at 4 weeks", "value": 1.19, "unit": "mmol/L"}, {"measurement": "HDL (1.0-2.7 mmol/L)", "setting": "[2]; by 1 week", "value": 0.73, "unit": "mmol/L"}, {"measurement": "HDL (1.0-2.7 mmol/L)", "setting": "[2]; by 2 weeks", "value": 0.75, "unit": "mmol/L"}, {"measurement": "HDL (1.0-2.7 mmol/L)", "setting": "[2]; by 3 weeks, normalized", "value": 1.13, "unit": "mmol/L"}, {"measurement": "Bone mineral density in hips", "setting": "[3]; Patient 1, first time in 3.5 years, no osteoporosis therapy (FIG. 9)", "value": "improvement"}, {"measurement": "Bone mineral density in hips", "setting": "[3]; Patient 2, first time in 4.5 years (FIG. 10)", "value": "improvement"}]}
